# Assay: in vitro
# Settings: human, hela cells, % viability
row,Compound,"viability at 28.5 h, 10 µM [%]"
1,C#CCNC(=O)CC[C@H]1CNC(=O)[C@@H]2[C@@H](CCN2Cc2ccccc2)N1C [CBK289034],101
2,CCOc1ccc(S(=O)(=O)N2CCN(Cc3cc(C(=O)OC)n(C)c3)CC2)c2cccnc12 [CBK062796],92.6
3,CCc1nc2ccc(C(=O)NCCCN3CCCC3=O)cn2c1N(C)C(=O)COc1ccccc1 [CBK145855],98.7
4,Cc1nc2cc(C(=O)O)ccc2[nH]1 [CBK220035],84.6
5,O=C(CSc1nnnn1C1CC1)Nc1ccc(CN2CCOCC2)cc1 [CBK305857],99.2
6,O=C(NC(C(=O)N/N=C/c1ccc(O)cc1)c1n[nH]c(=O)c2ccccc12)c1ccccc1 (stereo not shown) [CBK262839],116
7,CCOC(=O)c1c(NC(C)=O)nc2n1CCS2 [CBK023488],98.5
8,c1cnc(N2CCCC2)c(OC2CCOC2)n1 (stereo not shown) [CBK115891],91.2
9,O=C(NCc1nnc(-c2cccs2)o1)c1ccccc1-c1ccccc1 [CBK286293],112
10,CC1(C)CCCC2=C1CC(C(=O)O)C(C(=O)NCc1cccnc1)C2 (stereo not shown) [CBK286795],83.3
11,Cc1ccccc1OCCCn1cncc1-c1cn(C)nc1C [CBK281813],85.1
12,OCCOCCN1CCN(C(S)=Nc2ccccc2)CC1 [CBK018046],84.7
13,CC(=O)c1c(C)oc2ccc(N(C(C)=O)S(=O)(=O)c3ccc(C(=O)O)cc3)cc12 [CBK299790],106
14,COc1ccc(CCNC(=O)N2CCN(CCc3ccccc3)CC2)cc1OC [CBK158915],102
15,COCCC(=O)Nc1cnc(-c2ccc(F)c(Cl)c2)c(-c2cccnc2)n1 [CBK036938],95.2
16,C[N+](C)(C)c1ccc(C(=O)O)cc1 [CBK260929B],90
17,CS(=O)(=O)c1ccc2nc(Nc3nc4c(F)cccc4s3)sc2c1 [CBK287478],101
18,COc1cccc(Nc2[nH]nnc2C(=O)Nc2cccc(C)c2C)c1 [CBK288028],102
19,CC(C)CNC(=O)N1CCN(Cc2ccccc2)CC1 [CBK155644],110
20,O=C(Oc1ccccc1)N1CCC(n2c(=O)[nH]c3ccccc32)CC1 [CBK149865],89
21,Cc1nc(C)c(S(=O)(=O)Nc2ccccc2-c2nnnn2C(C)C)s1 [CBK305508],96.3
22,Oc1cc(C(F)(F)F)nc(N2CCc3ccccc3C2)n1 [CBK000344],82

row,Compound,"viability at 28.5 h, 10 µM [%]"
1,CN(C)c1cccc(-c2cnc3[nH]c(=O)n(-c4ccc5[nH]ccc5c4)c3n2)c1 [CBK064682],103
2,COc1ccc(C(=O)Nc2nsc(-c3ccccc3)n2)cc1 [CBK113233],97.2
3,Cc1ccc(C(=O)NCc2cccnc2)c(N2CCOCC2)n1 [CBK076400],112
4,Cn1c(=O)[nH]c(=O)c2c1nc(N1CCCCC1)n2CCCSc1nc2ccccc2s1 [CBK269550],103
5,COc1ccc(C2CC(c3ccc(NS(C)(=O)=O)cc3)=NN2C(=O)CCCC(=O)O)cc1 (stereo not shown) [CBK297780],116
6,CS(=O)(=O)c1ccc(-c2cccc(COC3CCN(C(=O)Cc4cccc5ccccc45)CC3)c2)cc1 [CBK149510],90.6
7,COc1cc2c(cc1OC)C1c3ccccc3NC(c3ccc(F)cc3)N1CC2 (stereo not shown) [CBK286191],102
8,O=C(CSc1nc[nH]n1)Nc1ccc(-c2nc3ccccc3s2)cc1 [CBK267146],81.9
9,O=C(CSc1nnc(-c2ccccc2Cl)[nH]1)c1ccc(O)c(O)c1 [CBK267693],78.3
10,CCOC(=O)N1CCN(CCCCc2ccc(F)cc2)CC1 [CBK025002C],105
11,COCc1ccc(C(=O)N2CCC(c3cc4ncccc4[nH]3)CC2)o1 [CBK283373],102
12,CC(C)c1csc(CNC(=O)NC2CCCN(c3ccn(C)n3)C2=O)n1 (stereo not shown) [CBK304447],83.6
13,COc1cccc2c(=O)n(CCCn3nc(C)nc3C)cnc12 [CBK307295],97
14,CN(CC(=O)O/N=C(\N)c1ccc(I)cc1)S(=O)(=O)c1cc(Cl)ccc1Cl [CBK268389],89.6
15,COc1ccc(/C=N/NC(=O)CCn2c3ccccc3c3ccccc32)cc1O [CBK262343],46
16,Nc1ncc(-c2cncnc2)nc1NCc1ccccc1 [CBK063584],103
17,COc1ccc(CN2C(=S)N(c3ccccc3)[C@H]3[C@@H]2[C@H]2OC(=O)[C@@H]3C[C@H]2O)cc1 [CBK288937],108
18,COCC(=O)N1CCc2sccc2C1c1ccc(NC(=O)c2ccco2)cc1 (stereo not shown) [CBK286200],95.6
19,O=C(NCc1cccnc1)c1cc2c(ccc3ccccc32)oc1=O [CBK270195],95.7
20,COc1cc(-c2nccnc2N(C)Cc2ccccc2)cc(OC)c1OC [CBK037424],96.5
21,COc1ccc(N2C(=S)N(Cc3cccs3)[C@H]3[C@@H](O)[C@H](O)C[C@@H](C(N)=O)[C@H]32)cc1 [CBK288929],93
22,c1ccc2c(c1)nnn2CNCn1nnc2ccccc21 [CBK261114],85.4

row,Compound,"viability at 28.5 h, 10 µM [%]"
1,Nc1nccn(CCOc2cc(F)c(F)cc2F)c1=O [CBK138204T],92.6
2,CCNc1cc(-c2cccc(N)c2)ncn1 [CBK037731],96.4
3,O=S(=O)(c1ccc(C(F)(F)F)cc1Cl)N1CCN(Cc2ccc3cccc(O)c3n2)CC1 [CBK063073],94.1
4,OC(COc1c(Br)cccc1Br)CN1CCCCC1 (stereo not shown) [CBK003077T],90.9
5,CCN(CC)C(=O)CN1CCC(Oc2nccnc2OCCN2CCOCC2)CC1 [CBK082928],93.4
6,Cc1noc(C)c1NC(=O)c1ccno1 [CBK200394],87
7,COc1ccc2c3c([nH]c2c1)C(C)N(CCC(=O)NN)CC3 (stereo not shown) [CBK261726],93.2
8,Oc1ccc(/N=C/c2ccc(/C=N/c3ccc(O)cc3)cc2)cc1 [CBK261203],98.5
9,COc1cc2nnnn2c(-c2ccccc2)n1 [CBK026189],102
10,CN(C)S(=O)(=O)N(CC(=O)NCc1ccco1)c1ccccc1 [CBK267971],97.3
11,CCCn1cnc2cc(NC(=O)C3CCN(S(=O)(=O)c4ccc(F)cc4)C3)ccc21 (stereo not shown) [CBK285704],85.8
12,COc1ccc(OC)c(N2Cc3ccc(OC)c(OC)c3C2=O)c1 [CBK113161],82.9
13,Oc1ccc(/N=C/C=C/c2ccc(Cl)cc2Cl)cc1-c1nc2ccccc2s1 [CBK261242],107
14,Cc1ccc(C(C)NC(=O)C2CCCN(S(C)(=O)=O)C2)c(C)c1 (stereo not shown) [CBK304349],94.1
15,CC(Oc1ccc2c(c1)OCO2)C(=O)NNC(=O)Nc1cccc(Cl)c1Cl (stereo not shown) [CBK266852],86.5
16,CNC(=S)NCCc1c[nH]c2ccccc12 [CBK264853],108
17,Cc1ccc(S(=O)(=O)Nc2ccc(Nc3cc(-c4cc5ccccc5o4)ncn3)cc2)cc1 [CBK090976],96.8
18,COc1cc(C(O)c2cc3c(cc2CO)OCO3)cc(OC)c1OC (stereo not shown) [CBK200098],100
19,COC(=O)CCC(=O)N1CCC2(CCN(Cc3ccccc3)C2)C1 (stereo not shown) [CBK136852],116
20,Cc1ccc(S(=O)(=O)NCC23C=CC(O2)C2C(=O)N(Cc4ccccc4)C(=O)C23)cc1 (stereo not shown) [CBK261170],107
21,COc1cc(-c2cnc3[nH]c(=O)n(C4CCOCC4)c3n2)cc(OC)c1OC [CBK064255],94.6
22,C=CCNC(=O)[C@@H]1C=CCN1S(=O)(=O)c1ccc(Cl)cc1 [CBK284318],90.4

row,Compound,"viability at 28.5 h, 10 µM [%]"
1,O=C(O)c1cc(-c2c[nH]c3ccc(Cl)cc23)[nH]n1 [CBK287257],95
2,OC[C@@H](c1ccccc1)N1CC[C@H]2c3ccc(Br)cc3CC[C@H]21 [CBK017507C],84.4
3,CN(Cc1ccccc1)C(C#N)c1c[nH]c2ccccc12 (stereo not shown) [CBK087062],95.3
4,CS(=O)(=O)N1CCN(c2ccccc2NC(=O)CSc2ccc(Cl)cc2)CC1 [CBK267607],83.7
5,CC(C)(CC(=O)Nc1sc2c(c1C(=O)O)CCC2)CC(=O)Nc1sc2c(c1C(=O)O)CCC2 [CBK296100],92.3
6,COc1ccc(-c2cc(C(=O)Nc3c(C)cccc3C)n[nH]2)c(OC)c1 [CBK288114],107
7,Cc1cc(C)c2sc(NC(=O)c3ccccc3)nc2c1 [CBK287614],104
8,O=C(O)CN1C(=O)C2(CC(=O)N(Cc3ccccc3)C2=O)c2cc(F)ccc21 (stereo not shown) [CBK076173],99.3
9,N#Cc1cccc(Nc2cncc(-c3cccc(N)c3)n2)c1 [CBK065319],89.1
10,CC(C)C(CNCc1ccc(F)c(Cl)c1)c1ccnn1C (stereo not shown) [CBK305130],82.9
11,CCN(CC)c1ccc(NC(=O)c2cc(-c3cccnc3)cnc2NCCN2CCOCC2)cc1 [CBK126566],105
12,Cc1nn(C)cc1CN1CCC(C(=O)NCCc2ccccc2)C1 (stereo not shown) [CBK281968],111
13,Cc1cccc(-c2ccc(CC3(C(=O)NC(C)C)CCN(C(=O)C(C)C)CC3)cc2)c1 [CBK285756],99.8
14,O=C(O)C1CCN(c2ncnc3scc(-c4ccccc4)c23)CC1 [CBK076784],95.6
15,O=C(N[C@@H](Cn1cc(Cl)c(=O)[nH]c1=O)C(=O)O)C1CCCCC1 [CBK289648],98.7
16,NS(=O)(=O)c1ccc(NC(=O)c2ccc(NC(=O)C3COc4ccccc4O3)cc2)cc1 (stereo not shown) [CBK266573],101
17,O=C(CCCn1ccnc1)N1CCCC(c2cc3cccnc3[nH]2)C1 (stereo not shown) [CBK284959],107
18,Cc1cc2ncc3c(n2n1)CC1CCC3N1C(=O)c1ccco1 (stereo not shown) [CBK284379],78.1
19,Cn1cc(NC(=O)c2ccc(COc3c(F)c(F)cc(F)c3F)o2)c(C(=O)O)n1 [CBK287014],98.5
20,Cn1cc(C(=O)NCC(c2ccc(F)cc2)N2CCCC2)ccc1=O (stereo not shown) [CBK282843],87.4
21,CC(C)NC(=O)CN(C)Cc1nc(-c2cccc(C(F)(F)F)c2)no1 [CBK306036],72.2
22,CC(C)n1c(=O)n(CC(=O)NC2CCCCC2)c2cccnc21 [CBK283696],99

# Source: paper PMC12040169 (PLOS Biology, 2025)
